Laboratory results published in patent US20110124033A1, “FLUORESCENCE BASED ASSAY TO DETECT SODIUM/CALCIUM EXCHANGER (NCX ) "REVERSE MODE" MODULATING COMPOUNDS” (SANOFI-AVENTIS, priority 2008, published 2011).

What was measured:
[1] = target: human NCX1 (Homo sapiens, UniProt P32418); conditions: 5 mM nickel
Protocol: (§1) The cultured cells were detached by application of iced PBS (phosphate buffered saline) or Trypsin at least 18 hours prior to electrophysiological experiments and replated on cover slips.
(§2) Two bath solutions and pipette solutions were prepared for patch clamp experiments with the following composition:
(§3) 135 mM NMG, 5 mM MgCl2, 2 mM CaCl2, 4 mM EGTA, 30 mM HEPES, pH 7.4
(§4) 139 mM NMG, 5 mM MgCl2, 2 mM CaCl2, 30 mM HEPES, pH 7.4
(§5) 100 mM NaCl, 5 mM KCl, 2 mM CaCl2, 2 mM MgCl2, 2.1 mM EGTA, 35 mM TEA-Cl, 4 mM Mg-ATP, 0.5 mM Na-GTP,
(§6) 5.63 mM Phosphocreatine, 30 mM HEPES, […] Creatine Phosphokinase (70 ml pipette solution+3500 U filtered Creatine Phosphokinase, ad 100 ml pipette solution), pH 7.4 (NaOH)
(§7) To inhibit NCX currents, 5 mM nickel chloride was dissolved in bath solution “high calcium”. NCX activity was measured using the patch clamp technique in the whole cell configuration. The cells were clamped at room temperature (20-25° C.) to a holding potential of 0 mV. NCX currents were evoked by application of 2 mM external calcium (bathsolution “high calcium”) for 4 seconds (=control). Calcium application was repeated every 20 s. After 5 stimulations, inhibition by nickel was tested using the same protocol but activation with calcium in the presence of 5 mM nickel (5 replicates). Finally, 5 calcium pulses were applied again for washout studies. To characterize NCX currents, peak currents, transported charge and the time constant of signal decay were investigated and analyzed according to the report. All data are presented as mean±SEM.

[2] = target: human NCX2 (Homo sapiens, UniProt Q9UPR5)
Protocol: as §1, §2, §3, §4, §5, §6, §7

[3] = target: human NCX3 (Homo sapiens, UniProt P57103)
Protocol: as §1, §2, §3, §4, §5, §6, §7

[4] = after 5 mM nickel, 5 calcium pulses for washout

human NCX2, sequence (Q9UPR5 21-921): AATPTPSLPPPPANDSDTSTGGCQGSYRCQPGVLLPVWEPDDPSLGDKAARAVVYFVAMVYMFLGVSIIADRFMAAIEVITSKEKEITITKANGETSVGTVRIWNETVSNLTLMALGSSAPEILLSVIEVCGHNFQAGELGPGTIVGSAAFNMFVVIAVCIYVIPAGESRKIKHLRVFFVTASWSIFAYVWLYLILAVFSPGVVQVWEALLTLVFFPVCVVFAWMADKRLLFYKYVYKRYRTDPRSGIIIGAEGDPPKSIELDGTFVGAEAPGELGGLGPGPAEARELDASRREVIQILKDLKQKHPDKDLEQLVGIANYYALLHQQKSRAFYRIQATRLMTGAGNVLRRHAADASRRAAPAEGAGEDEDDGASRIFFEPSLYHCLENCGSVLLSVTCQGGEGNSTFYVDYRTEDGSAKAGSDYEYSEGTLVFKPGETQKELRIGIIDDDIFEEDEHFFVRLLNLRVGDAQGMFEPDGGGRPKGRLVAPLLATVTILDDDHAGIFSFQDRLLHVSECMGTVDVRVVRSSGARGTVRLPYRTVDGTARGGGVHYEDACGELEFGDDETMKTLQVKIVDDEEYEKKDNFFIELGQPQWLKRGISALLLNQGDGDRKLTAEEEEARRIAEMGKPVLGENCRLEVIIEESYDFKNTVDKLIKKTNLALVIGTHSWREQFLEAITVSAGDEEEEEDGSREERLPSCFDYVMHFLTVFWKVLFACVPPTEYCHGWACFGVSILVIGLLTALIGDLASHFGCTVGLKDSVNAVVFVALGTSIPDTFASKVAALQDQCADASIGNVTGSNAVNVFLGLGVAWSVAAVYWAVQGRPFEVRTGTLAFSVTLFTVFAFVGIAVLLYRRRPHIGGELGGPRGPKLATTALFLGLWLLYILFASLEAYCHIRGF
human NCX3, sequence (P57103 31-924 isoform P57103-6 limits assumed): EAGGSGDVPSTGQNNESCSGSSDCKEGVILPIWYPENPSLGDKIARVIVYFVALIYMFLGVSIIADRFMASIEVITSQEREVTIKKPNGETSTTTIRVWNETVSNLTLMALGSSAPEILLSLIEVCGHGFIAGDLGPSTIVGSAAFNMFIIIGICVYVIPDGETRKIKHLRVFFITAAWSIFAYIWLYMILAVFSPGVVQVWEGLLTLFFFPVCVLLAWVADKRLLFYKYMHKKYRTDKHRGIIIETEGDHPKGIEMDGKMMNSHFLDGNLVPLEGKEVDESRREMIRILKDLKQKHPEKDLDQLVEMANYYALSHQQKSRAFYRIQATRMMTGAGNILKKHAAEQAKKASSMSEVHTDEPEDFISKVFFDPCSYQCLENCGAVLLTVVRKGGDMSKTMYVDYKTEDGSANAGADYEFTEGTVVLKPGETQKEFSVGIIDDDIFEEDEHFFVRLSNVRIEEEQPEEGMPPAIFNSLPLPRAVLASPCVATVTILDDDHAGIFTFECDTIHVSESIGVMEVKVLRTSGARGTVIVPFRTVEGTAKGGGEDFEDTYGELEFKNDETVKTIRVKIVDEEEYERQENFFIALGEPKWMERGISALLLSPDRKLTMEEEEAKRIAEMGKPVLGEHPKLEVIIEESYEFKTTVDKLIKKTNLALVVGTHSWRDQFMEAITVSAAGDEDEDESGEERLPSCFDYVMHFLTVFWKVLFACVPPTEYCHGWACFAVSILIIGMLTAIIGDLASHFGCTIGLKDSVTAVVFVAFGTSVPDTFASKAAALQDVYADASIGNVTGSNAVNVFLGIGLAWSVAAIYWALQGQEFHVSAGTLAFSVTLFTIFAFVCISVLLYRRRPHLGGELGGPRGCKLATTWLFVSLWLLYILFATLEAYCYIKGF

For `[Cl][Ni][Cl]` [nickel, nickel chloride], the “Block of NCX1 outward currents (in words)” value [1] was “completely and reversible blocked”, the “Block of NCX1 outward currents” value ([1]; reverse mode, 2 mM external Ca2+, holding potential 0 mV) was 91.3±3.3% and the “Block of NCX2 outward currents (in words)” value ([2]; 5 mM nickel) was “completely and reversible blocked”. The “Washout after nickel block, NCX2 currents” value [2, 4] was 100.2±1.9%, the “Block of NCX3 outward currents (in words)” value ([3]; 5 mM nickel) was “completely and reversible blocked” and the “Washout after nickel block, NCX3 currents” value [3, 4] was 111.5±2.4%.
